Test system: normal rabbits
Assay: Effect on whole tear secretion of normal rabbits, rate of increase (Test Example 5)
Assay type: in vivo, Male Japanese albino rabbits
Conditions: 30 μl/eye single, 2 hours after the instillation compared with before (0 hour), 4 eyes
Protocol: Male Japanese albino rabbits were used.
(2) Method of Administration
Ophthalmic solution comprising an active ingredient of the present invention was prepared and used as a test composition.
Each of the compositions was instilled to the eye singly at the amount of 30 μl/eye.
Amount of the Tear Secretion
Before (0 hour) and 2 hours after the instillation, the whole tear secretion was determined.
Under no anesthetization, one edge of the Schirmer's test strip (Showa Yakuhin Kako Co., Ltd.) was inserted into the conjunctival sac of the each test animal. One minute after, the strip was removed and the length of the moisted part was read from the scale provided on the strip to determine the amount of whole tear secretion.
The rate (%) of increased amount of whole tear secretion was calculated at the 2 hours after the instillation compared with the before (0 hour).

2-decarboxy-2-(2-carboxyethyl)-13,14-dihydro difluoro-PGE1 [Compound 3]
Rate of the increased whole tear secretion (10 μg/ml ophthalmic solution): 52.0%

CCCC(F)(F)C(=O)C=CCC1C(O)CC(=O)C1CCCCCCC(=O)OC (centres unmarked) [Compound 1, 15-dehydroxy-13,14-dihydro-14,15-dehydro-16keto-17,17-difluoro-PGE1-methyl ester]
Rate of the increased whole tear secretion (30 μg/ml ophthalmic solution): 40.7%

CCCCCCC(F)(F)C(=O)CCC1C(O)CC(=O)C1CCCCCCC(=O)O (centres unmarked) [Compound 2, 13,14-dihydro-15-keto-16,16-difluoro-20-ethyl-PGE1]
Rate of the increased whole tear secretion (10 μg/ml ophthalmic solution): 52.5%

CCCCC(F)(F)C(=O)CCC1C(O)CC(O)C1C/C=C\CCCC(=O)OC (centres unmarked) [Compound 4, 13,14-dihydro-15-keto-16,16-difluoro-PGF2a-Methyl ester]
Rate of the increased whole tear secretion (3 ug/ml ophthalmic solution): 61.8%

CCCCC(F)(F)C(=O)CCC1CCC(=O)C1CCCCCCC(=O)O (centres unmarked) [Compound 5, 11-dehydroxy-13,14-dihydro-15-keto-16,16-difluoro-PGE1]
Rate of the increased whole tear secretion (3 ug/ml ophthalmic solution): 43.5%

CCCCCC(=O)CC[C@H]1[C@H](O)CC(=O)[C@@H]1CCCCCCC(=O)O [Compound 6, 13,14-dihydro-15-keto-PGE1]
Rate of the increased whole tear secretion (100 μg/ml ophthalmic solution): 44.0%

CCCCCCC(F)(F)C(=O)CCC1C(O)CC(=O)C1CCCCCCCCC(=O)OC(C)C (centres unmarked) [Compound 7, 2-decarboxy-2-(2-carboxyethyl)-13,14-dihydro 15-keto-16,16-difluoro-20-ethyl-PGE1-isopropyl ester]
Rate of the increased whole tear secretion (2O00 μg/ml ophthalmic solution): 56.9%

CCCCC(F)(F)C(=O)CCC1C(O)CC(=O)C1C/C=C\CCCC(=O)O (centres unmarked) [Compound 8, 13,14-dihydro-15-keto-16,16-difluoro-PGE2]
Rate of the increased whole tear secretion (1 μg/ml ophthalmic solution): 24.8%

From patent US7396946B2, “Compound for treatment of external secretion disorders” (Sucampo AG, priority 1999, dated 2008)
